# Like-named read-outs stand apart in the source and are kept apart here.
# What was measured:
# [1] = target: T1, human FLT3 protein (FLT3 (WT)) (Homo sapiens, UniProt P36888); assay: FLT3 inhibition test (FLT3 enzyme inhibition, time-resolved fluorescence of substrate peptide phosphorylation); assay type: biochemical; conditions: read-out: FLT3 (WT) enzyme inhibition activity
# T1 construct: human FLT3 protein (intracellular region, 564 to 993 aa); GST; purchased Carna Biosciences; host or cells: baculovirus expression system
# T1 sequence (P36888 564-993): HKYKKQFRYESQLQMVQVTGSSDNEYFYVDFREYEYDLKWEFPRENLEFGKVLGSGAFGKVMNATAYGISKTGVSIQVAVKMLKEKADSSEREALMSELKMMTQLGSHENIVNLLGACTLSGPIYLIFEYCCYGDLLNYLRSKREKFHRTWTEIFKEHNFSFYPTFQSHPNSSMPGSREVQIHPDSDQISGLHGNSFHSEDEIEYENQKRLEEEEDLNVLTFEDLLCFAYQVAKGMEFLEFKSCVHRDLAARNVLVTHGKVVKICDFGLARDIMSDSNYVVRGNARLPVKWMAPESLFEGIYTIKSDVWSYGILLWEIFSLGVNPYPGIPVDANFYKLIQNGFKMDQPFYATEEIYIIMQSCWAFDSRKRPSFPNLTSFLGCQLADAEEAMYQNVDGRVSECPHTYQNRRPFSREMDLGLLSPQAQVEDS
# In short: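 Substrate peptide phosphorylation detected by time-resolved fluorescence after a 30 min kinase reaction at 25° C with 50 μM ATP (final). Beforehand, compound and FLT3 (WT, 1.2 μg) stood 15 min at 25° C in HEPES buffer pH 7.5 containing MgCl2, NaCl, BSA and DTT.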
# Molm-13 cells = assay: Leukemia cell proliferation inhibition test (ATPlite), Molm-13; assay type: cell-based; conditions: Homo sapiens, read-out: MOLM13 cell proliferation inhibition effect
# In short: (§1)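 Molm-13 or MV4-11 cells at 10,000 cells/well in RPMI with 10% FBS and pen/strep were exposed to serially diluted compound for 72 h at 37 °C, 5% CO2. Total cellular ATP was read by luciferase luminescence. GI50 was taken relative to 0.1% DMSO control, from duplicates by sigmoid non-linear regression.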
# MV4-11 cells = assay: Leukemia cell proliferation inhibition test (ATPlite), MV4-11; assay type: cell-based; conditions: Homo sapiens, read-out: MV4-11 cell proliferation inhibition effect
# In short: as §1
# [2] = GST-fused human FLT3 (564 to 993 aa), ATP 50 μM
# [3] = MOLM-13, 72 h, Molm-13, 72 hours culture, ATPlite, GI50 per method
# [4] = MV4-11, 72 h, MV4-11, 72 hours culture, ATPlite, GI50 per method
"IC50 [1, 2]",IC50 (Molm-13 cells; [3]),IC50 (MV4-11 cells; [4]),IC50 ([1]; FLT3 (WT)),"IC50 (Molm-13 cells; MOLM-13, MOLM13 cell)","IC50 (MV4-11 cells; MV4-11, MV4-11 cell)",SMILES
10 to 100 nM,< 10 nM,10 to 100 nM,–,–,–,CCCNc1nc(Nc2ccc(Cn3ccnn3)cc2)ncc1C#CCCCNC(=O)CN(C)C(=O)/C=C/CN(C)C [Compound 12-12]
–,–,–,< 10 nM,< 10 nM,< 10 nM,CCCNc1nc(Nc2ncc(C#N)s2)ncc1C#CCCCNC(=O)[C@H](C)N(C)C(=O)/C=C/CN(C)C [Compound 22-22]
< 10 nM,10 to 100 nM,10 to 100 nM,–,–,–,CCCNc1nc(Nc2ccc3cn(C)nc3c2)ncc1C#CCCCNC(=O)[C@H](C)N(C)C(=O)/C=C/CN(C)C [Compound 21-10]
< 10 nM,10 to 100 nM,< 10 nM,–,–,–,CC[C@@H](C(=O)NCCCC#Cc1cnc(Nc2ccc(F)nc2)nc1NCC(F)(F)F)N(C)C(=O)/C=C/CN(C)C [Compound 10-35]
–,–,–,< 10 nM,< 10 nM,< 10 nM,C[C@@H](C(=O)N[C@H]1CCC[C@@H](C#Cc2cnc(Nc3cccc(C#N)c3)nc2NC2CC2)C1)N(C)C(=O)/C=C/CN(C)C [Compound 21-47]
< 10 nM,10 to 100 nM,10 to 100 nM,–,–,–,CCCNc1nc(Nc2ccc(C(N)=O)cc2)ncc1C(=O)Nc1cccc(NC(=O)[C@H](C)N(C)C(=O)/C=C/CNCC(F)(F)F)c1 [Compound 4-13]
< 10 nM,< 10 nM,< 10 nM,–,–,–,CCCNc1nc(Nc2ccc(C#N)cc2)ncc1C#CCCCNC(=O)CN(CC(C)C)C(=O)/C=C/CN(C)C [Compound 7-65]
< 10 nM,< 10 nM,< 10 nM,–,–,–,"CNc1nc(Nc2ccc(C#N)cc2)ncc1C#CCCCNC(=O)CN(C)C(=O)/C=C/CN(C)C [Compound 7-88, (E)-N-(2-((5-(2-((4-Cyanophenyl)amino)-4-(methylamino)pyrimidin-5-yl)-4-pentyn-1-yl)amino)-2-oxoethyl)-4-(dimethylamino)-N-methyl-2-butenamide]"
< 10 nM,< 10 nM,< 10 nM,–,–,–,CCCNc1nc(Nc2ccc3nnccc3c2)ncc1C(=O)NCCCNC(=O)[C@H](C)N(C)C(=O)/C=C/CN(C)C [Compound 6-10B]
< 10 nM,< 10 nM,< 10 nM,–,–,–,"CCCNc1nc(Nc2ccnc(OC)c2)ncc1C#CCCCNC(=O)[C@@H]1C[C@H](F)CN1C(=O)/C=C/CN(C)C [Compound 9-37, (2S,4S)-1-((E)-4-(Dimethylamino)-2-butenoyl)-4-fluoro-N-(5-(2-((2-methoxypyridin-4-yl)amino)-4-(propylamino)pyrimidin-5-yl)-4-pentyn-1-yl)pyrrolidine-2-carboxamide]"
< 10 nM,< 10 nM,< 10 nM,–,–,–,CCCNc1nc(Nc2ccc(C#N)cc2)ncc1C#CCCCNC(=O)[C@@H]1C[C@H](OC)CN1C(=O)/C=C/CN(C)C [Compound 7-61]
< 10 nM,< 10 nM,< 10 nM,–,–,–,CN(C)C/C=C/C(=O)N1CCC[C@H]1C(=O)N[C@H]1C[C@@H](C#Cc2cnc(Nc3cccc(F)c3)nc2NC2CC2)C1 [Compound 15-11]
< 10 nM,< 10 nM,< 10 nM,–,–,–,C[C@@H](C(=O)N[C@H]1C[C@@H](C#Cc2cnc(Nc3cccc(F)c3)nc2NC2CC2)C1)N(C)C(=O)/C=C/CN(C)C [Compound 15-7]
< 10 nM,< 10 nM,< 10 nM,–,–,–,"CCCNc1nc(Nc2ccnc(OC)c2)ncc1C#C[C@H]1C[C@@H](NC(=O)[C@H](C)N(C)C(=O)/C=C/CN(C)C)C1 [Compound 14-6, (E)-4-(Dimethylamino)-N—((S)-1-(((1S,3R)-3-((2-((2-methoxypyridin-4-yl)amino)-4-(propylamino)pyrimidin-5-yl)ethynyl)cyclobutyl)amino)-1-oxopropan-2-yl)-N-methyl-2-butenamide]"
< 10 nM,< 10 nM,< 10 nM,–,–,–,C[C@@H](C(=O)NCCCC#Cc1cnc(Nc2ccc(C#N)cc2)nc1NCC1CC1)N(C)C(=O)/C=C/CN(C)C [Compound 21-12]
10 to 100 nM,< 10 nM,< 10 nM,–,–,–,CCCNc1nc(Nc2ccc(C#N)cc2)ncc1C#CCCCNC(=O)[C@@H]1CC(F)(F)CN1C(=O)/C=C/CN(C)C [Compound 7-54]
< 10 nM,10 to 100 nM,< 10 nM,–,–,–,CCCNc1nc(NCCc2ccncc2)ncc1C(=O)Nc1ccc(OC)c(NC(=O)CNC(=O)/C=C/CN(C)C)c1 [Compound 1-9]
< 10 nM,10 to 100 nM,10 to 100 nM,–,–,–,C=CC(=O)N(C)CC(=O)NCCCNC(=O)c1cnc(Nc2ccc(C(N)=O)cc2)nc1NCCC [Compound 5-2]
–,–,–,< 10 nM,< 10 nM,< 10 nM,"CCCNc1nc(Nc2cnc3[nH]nc(C)c3c2)ncc1C#CCCCNC(=O)[C@@H]1CCCN1C(=O)/C=C/CN(C)C [Compound 22-56, (S,E)-1-(4-(Dimethylamino)-2-butenoyl)-N-(5-(2-((3-methyl-1H-pyrazolo[3,4-b]pyridin-5-yl)amino)-4-(propylamino)pyrimidin-5-yl)-4-pentyn-1-yl)pyrrolidine-2-carboxamide]"
< 10 nM,< 10 nM,< 10 nM,–,–,–,"CNc1nc(Nc2ccc(F)cc2)ncc1C#CCCCNC(=O)[C@@H]1C[C@@H](OC)CN1C(=O)/C=C/CN(C)C [Compound 7-83, (2S,4R)-1-((E)-4-(Dimethylamino)-2-butenoyl)-N-(5-(2-((4-fluorophenyl)amino)-4-(methylamino)pyrimidin-5-yl)-4-pentyn-1-yl)-4-methoxypyrrolidine-2-carboxamide]"
10 to 100 nM,100 to 1000 nM,10 to 100 nM,–,–,–,CCCNc1nc(Nc2cccc(F)c2)ncc1C#Cc1cccc(NC(=O)[C@H](C)N(C)C(=O)/C=C/CN(C)C)n1 [Compound 8-20]
< 10 nM,< 10 nM,< 10 nM,–,–,–,CCCNc1nc(Nc2ccnc(OC)c2)ncc1C#CCCCNC(=O)[C@@H]1C[C@H](O)CN1C(=O)/C=C/CN(C)C [Compound 9-36]
–,–,–,< 10 nM,< 10 nM,< 10 nM,CCCNc1nc(Nc2ccc3[nH]ncc3c2)ncc1C#CCCCNC(=O)[C@@H]1CCCN1C(=O)/C=C/CN(C)C [Compound 22-62]
–,–,–,< 10 nM,10 to 100 nM,10 to 100 nM,CCCNc1nc(Nc2cncc(Cl)c2)ncc1C#CCCCNC(=O)[C@H](C)N(C)C(=O)/C=C/CN(C)C [Compound 22-9]
< 10 nM,10 to 100 nM,< 10 nM,–,–,–,"CCCNc1nc(Nc2ccc(C#N)cc2)ncc1C(=O)Nc1cccc(NC(=O)[C@H](C)N(C)C(=O)/C=C/CN(C)C)c1 [Compound 6-1, (S,E)-2-((4-cyanophenyl)amino)-N-(3-(2-(4-(dimethylamino)-N-methyl-2-butenamido)propanamido)phenyl)-4-(propylamino)pyrimidine-5-carboxamide]"
10 to 100 nM,100 to 1000 nM,100 to 1000 nM,–,–,–,C=CC(=O)NCCNC(=O)c1cnc(NCCc2ccncc2)nc1NCCC [Compound 2-17]
< 10 nM,< 10 nM,< 10 nM,–,–,–,"C[C@@H](C(=O)NCCCC#Cc1cnc(Nc2ccc(C#N)cc2)nc1Nc1ccc(F)cc1)N(C)C(=O)/C=C/CN(C)C [Compound 10-2, (S,E)-N-(1--((5-(2-((4-cyanophenyl)amino)-4-((4-fluorophenyl)amino)pyrimidin-5-yl)-4-pentyn-1-yl)amino)-1-oxopropan-2-yl)-4-(dimethylamino)-N-methyl-2-butenamide]"

# From patent US9145415B2, “Nitrogen-containing heterocyclic compound or salt thereof” (FUJIFILM Corporation, priority 2012, dated 2015)
